Measured values: PubChem BioAssay AID1208 (EPA DSSTox, 2008)
Calls of active or inactive are those of the source.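 The calls were made as follows: active = at least one rat sex group has a carcinogenic potency value and tumor site recorded; inconclusive = only rat studies were judged inadequate by the national testing program; inactive = no potency or tumor site, with negative rat experiments.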

Test system: rat chronic carcinogenicity bioassay, TD50
Test: DSSTox (CPDBAS) Carcinogenic Potency Database Summary Rat Bioassay Results
Conditions: for Potency: active compounds read low
Method in brief: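 The activity score maps log10(1/TD50_Rat_mmol) linearly onto 1–100; actives without a computed TD50, such as mixtures, receive 50. Source data are chronic rat carcinogenicity tests, using the most positive experiment for each sex.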

[1] = TD50_Rat_Note: no positive results, TargetSites_Rat_Female: no positive results
[2] = TD50_Rat_Note: no positive results
[3] = TargetSites_Rat_Female: no positive results
[4] = TD50_Rat_Note: TD50 is harmonic mean of more than one positive test, TargetSites_Rat_Female: mammary gland
[5] = TD50_Rat_Note: TD50 is harmonic mean of more than one positive test, TargetSites_Rat_Female: liver

## [CH3][Hg][Cl]
[1]
  outcome: inactive; no positive results

## CCCCCl
[1]
  outcome: inactive; no positive results

## Nc1ccc(Cc2ccc(N)c(Cl)c2)cc1Cl
TD50_Rat_Note: TD50 is harmonic mean of more than one positive test, TargetSites_Rat_Female: liver, lung, mammary gland
  Potency: 19.3 mg/kg/day
[2]
  outcome: inactive; no positive results

## O=NN1CCSCC1
TD50_Rat_Note: TD50 is harmonic mean of more than one positive test, TargetSites_Rat_Female: esophagus, oral cavity
  Potency: 5.39 mg/kg/day

## CC(C)(Oc1ccc(C2CCCc3ccccc32)cc1)C(=O)O (stereo not given)
TD50_Rat_Note: TD50 is harmonic mean of more than one positive test, greater than ten-fold variation among TD50 values for positive res, TargetSites_Rat_Female: liver
  Potency: 11 mg/kg/day

## ClC1C2(Cl)C3C4C5OC5C5C4C1(Cl)C(Cl)(C53)C2(Cl)Cl (stereo not given)
[1]
  outcome: inactive; no positive results

## COP(=O)(OC)OC
[1]
  outcome: inactive; no positive results

## N[C@@H](Cc1cnc[nH]1)C(=O)O
[1]
  outcome: inactive; no positive results

## ClC(Cl)=C(c1ccc(Cl)cc1)c1ccc(Cl)cc1
[1]
  outcome: inactive; no positive results

## Nc1ccc(-c2ccc(N)cc2)cc1
TargetSites_Rat_BothSexes: hematopoietic system, liver, mammary gland
  Potency: 1.73 mg/kg/day

## Oc1cccc(O)c1
[1]
  outcome: inactive; no positive results

## Nc1cc([N+](=O)[O-])ccc1O
[3]
  Potency: 839 mg/kg/day

## Nc1ccc(N)c2c1C(=O)c1c(N)ccc(N)c1C2=O
TD50_Rat_Note: TD50 is harmonic mean of more than one positive test, TargetSites_Rat_Female: urinary bladder
  Potency: 156 mg/kg/day

## Nc1ccc(-c2ccc(N)c(Cl)c2)cc1Cl
[4]
  Potency: 28.1 mg/kg/day

## CN(C)C(=O)Nc1cccc(C(F)(F)F)c1
[1]
  outcome: inactive; no positive results

## CCOC(=O)C(O)(c1ccc(Cl)cc1)c1ccc(Cl)cc1
[1]
  outcome: inactive; no positive results

## c1ccc2ccccc2c1
TD50_Rat_Note: TD50 is harmonic mean of more than one positive test, TargetSites_Rat_Female: nasal cavity
  Potency: 22.1 mg/kg/day

## CC[C@H](C)[C@H]1O[C@]2(CC[C@@H]1C)C[C@@H]1C[C@@H](C/C=C(\C)[C@@H](O[C@H]3C[C@H](OC)[C@@H](O[C@H]4C[C@H](OC)[C@@H](O)[C@H](C)O4)[C@H](C)O3)[C@@H](C)/C=C/C=C3\CO[C@@H]4[C@H](O)C(C)=C[C@@H](C(=O)O1)[C@]34O)O2
[2]
  outcome: inactive; no positive results

## Cc1ccc(N)c(C)c1
[2]
  outcome: inactive; no positive results

## [O]N=O
[2]
  outcome: inactive; no positive results

## NC(Cc1c[nH]c2ccccc12)C(=O)O (stereo not given)
[2]
  outcome: inactive; no positive results

## FC(F)(F)CCl
TD50_Rat_Note: TD50 is harmonic mean of more than one positive test, TargetSites_Rat_Female: uterus
  Potency: 87.3 mg/kg/day

## CCN(Cc1cccc(S(=O)(=O)O)c1)c1ccc(C(=C2C=CC(=[N+](CC)Cc3cccc(S(=O)(=O)[O-])c3)C=C2)c2ccc(S(=O)(=O)O)cc2)cc1
TargetSites_Rat_BothSexes: hematopoietic system
  Potency: 5640 mg/kg/day

## CCCCNC(N)=O
[1]
  outcome: inactive; no positive results

## CC(=O)CN(CC(C)=O)N=O
TD50_Rat_Note: TD50 is harmonic mean of more than one positive test, TargetSites_Rat_Female: liver, lung, vascular system
  Potency: 0.491 mg/kg/day

## O=NN(CCO)CCO
TD50_Rat_Note: TD50 is harmonic mean of more than one positive test, greater than ten-fold variation among TD50 values for positive res, TargetSites_Rat_Female: esophagus, kidney, liver, nasal cavity
  Potency: 3.17 mg/kg/day

## [O-]/[N+](=N\O)c1ccccc1
TD50_Rat_Note: TD50 is harmonic mean of more than one positive test, TargetSites_Rat_Female: ear Zymbals gland, liver, stomach, vascular system
  Potency: 8.35 mg/kg/day

## O=[N+]([O-])c1ccccc1
TD50_Rat_Note: TD50 is harmonic mean of more than one positive test, TargetSites_Rat_Female: liver, uterus
  Potency: 25.5 mg/kg/day

## Brc1cc(Br)c(-c2cc(Br)c(Br)cc2Br)cc1Br
[5]
  Potency: 0.322 mg/kg/day

## Nc1ccccc1C(=O)OC/C=C/c1ccccc1
[3]
  Potency: 12100 mg/kg/day

## CC(C(=O)O)c1cccc(C(=O)c2ccccc2)c1 (stereo not given)
[2]
  outcome: inactive; no positive results

## CC1CCC(C(C)C)C(O)C1 (stereo not given)
[1]
  outcome: inactive; no positive results

## ClC(Cl)=C(Cl)c1c(Cl)c(Cl)c(Cl)c(Cl)c1Cl
[1]
  outcome: inactive; no positive results

## O=C1CC(=O)NC(=O)N1
[2]
  outcome: inactive; no positive results

## Cc1c(N)cccc1N
[1]
  outcome: inactive; no positive results

## CN(C#N)N=O
TargetSites_Rat_Female: stomach
  Potency: 0.48 mg/kg/day

## CCN(CC)C(=S)S[Te](SC(=S)N(CC)CC)(SC(=S)N(CC)CC)SC(=S)N(CC)CC
[1]
  outcome: inactive; no positive results

## COc1ccc(OC)c(/C=C/c2ccc(N)cc2)c1
  Potency: 0.721 mg/kg/day

## Cc1ccc2c(c1N)C(=O)c1ccccc1C2=O
[5]
  Potency: 59.2 mg/kg/day

## COc1cccc(O)c1O
  Potency: 48.7 mg/kg/day

## CC1=CC(C)(C)N(N=O)c2ccccc21
TD50_Rat_Note: positive test results only by intraperitoneal or intravenous injection, TD50_Rat_mmol was not calculated for this mixtur
  Potency: 3.31 mg/kg/day

## Clc1cc2c(c(Cl)c1Cl)Oc1c(cc(Cl)c(Cl)c1Cl)O2
TargetSites_Rat_Female: liver
  Potency: 0.000596 mg/kg/day

## OCC(CO)N[C@H]1C[C@](O)(CO)[C@@H](O)[C@H](O)[C@H]1O
[1]
  outcome: inactive; no positive results

## O=C(O)CCCC/C=C(\c1ccccc1)c1cccnc1
[1]
  outcome: inactive; no positive results

## NNC(=O)c1ccncc1
[4]
  Potency: 150 mg/kg/day

## C=C(Cl)CSC(=S)N(CC)CC
[4]
  Potency: 26.1 mg/kg/day

## NC(=S)Nc1ccccc1
[1]
  outcome: inactive; no positive results

## c1ccoc1
TD50_Rat_Note: TD50 is harmonic mean of more than one positive test, TargetSites_Rat_Female: hematopoietic system, liver
  Potency: 0.396 mg/kg/day

## CC(=O)Nc1ccc(-c2ccccc2)cc1
TargetSites_Rat_Female: mammary gland
  Potency: 1.18 mg/kg/day

## [Na+]
[2]
  outcome: inactive; no positive results

## O=NN1C[C@H](O)C[C@H]1C(=O)O
[1]
  outcome: inactive; no positive results

## Nc1ccc(NCCO)c([N+](=O)[O-])c1
[1]
  outcome: inactive; no positive results

## O=[N+]([O-])c1cccc2ccccc12
[1]
  outcome: inactive; no positive results

## CC(CCl)OC(C)CCl (stereo not given)
[1]
  outcome: inactive; no positive results

## N#CSCc1ccccc1
[2]
  outcome: inactive; no positive results

## CC(N)Cc1ccccc1 (stereo not given)
[1]
  outcome: inactive; no positive results

## COC(C)(C)C
TD50_Rat_Note: TD50 is harmonic mean of more than one positive test, TargetSites_Rat_Female: hematopoietic system
  Potency: 702 mg/kg/day

## NC(=O)N/N=C/c1ccc([N+](=O)[O-])o1
TD50_Rat_Note: TD50 is harmonic mean of more than one positive test, harmonic mean of TD50 includes a value for upper 99% confidence li, TargetSites_Rat_Female: mammary gland
  Potency: 6.98 mg/kg/day

## CCOP(=O)=O.CCOP(=O)=O.CCOP(=O)=O.[Al+3]
[3]
  Potency: 3660 mg/kg/day

## CC(C)NCC(O)COc1ccc(CC(N)=O)cc1 (stereo not given)
[1]
  outcome: inactive; no positive results

## CN1C(=O)CN=C(c2ccccc2)c2cc(Cl)ccc21
[1]
  outcome: inactive; no positive results

## CS(=O)(=O)OCCCNCCCOS(C)(=O)=O
[1]
  outcome: inactive; no positive results

## Nc1nc(=S)c2ncn([C@H]3C[C@H](O)[C@@H](CO)O3)c2[nH]1
TD50_Rat_Note: positive test results only by intraperitoneal or intravenous injection, TargetSites_Rat_Female: ear Zymbals gland
  Potency: 2.1 mg/kg/day

## NCCCCCCCCCCC(=O)O
[3]
  Potency: 1100 mg/kg/day

## O=NN1CCOC(O)C1 (stereo not given)
[1]
  outcome: inactive

## CCn1c2ccccc2c2cc(N)ccc21
TD50_Rat_Note: TD50 is harmonic mean of more than one positive test, TD50_Rat_mmol was not calculated for this mixture, but Activiity S, TargetSites_Rat_Female: ear Zymbals gland
  Potency: 26.4 mg/kg/day
TD50_Rat_Note: TD50 is harmonic mean of more than one positive test, TargetSites_Rat_Female: ear Zymbals gland, liver, uterus
  Potency: 57.2 mg/kg/day

## [N-]=[N+]=[N-]
[1]
  outcome: inactive; no positive results

## C=C(C)C(=O)OC
[1]
  outcome: inactive; no positive results

## CN(C)CCC(c1ccc(Cl)cc1)c1ccccn1 (stereo not given)
[1]
  outcome: inactive; no positive results

## CC(=O)OCC(=O)[C@@]12N=C(C)O[C@@H]1C[C@H]1[C@@H]3CCC4=CC(=O)C=C[C@]4(C)[C@H]3[C@@H](O)C[C@@]12C
TD50_Rat_Note: TD50 not calculated by CPDB Source, TD50_Rat_mmol was not calculated, but Activiity Score is assigned value of 50 to ind, TargetSites_Rat_Female: no positive results
  outcome: active; bone

## CCCCCCc1ccc(O)cc1O
[1]
  outcome: inactive; no positive results

## CNC(=O)Oc1cc(C)c(N(C)C)c(C)c1
[1]
  outcome: inactive; no positive results

## C=CF
TD50_Rat_Note: TD50 is harmonic mean of more than one positive test, TargetSites_Rat_Female: ear Zymbals gland, liver, vascular system
  Potency: 20 mg/kg/day

## S=c1[nH]c2ccccc2s1
TD50_Rat_Note: TD50 is harmonic mean of more than one positive test, TargetSites_Rat_Female: adrenal gland, pituitary gland
  Potency: 344 mg/kg/day

## CCc1cccc2c3c([nH]c12)C(CC)(CC(=O)O)OCC3 (stereo not given)
[1]
  outcome: inactive; no positive results

## Nc1nc(N)c2nc(-c3ccccc3)c(N)nc2n1
[1]
  outcome: inactive; no positive results

## COC(=O)C1=C(C)NC(C)=C(C(=O)OCC(C)(C)CN(C)Cc2ccccc2)C1c1cc([N+](=O)[O-])ccc1F (stereo not given)
[1]
  outcome: inactive; no positive results

## CCOP(=S)(OCC)Oc1ccc2c(C)c(Cl)c(=O)oc2c1
[1]
  outcome: inactive; no positive results

## ClCC(Cl)Cl
[1]
  outcome: inactive; no positive results

## O=C(O)CNCC(=O)O
[1]
  outcome: inactive; no positive results

## CC(O)CNCC(C)O (stereo not given)
[2]
  outcome: inactive; no positive results

## O=[N+]([O-])c1ccc2ccc3cccc4ccc1c2c34
TargetSites_Rat_Female: clitoral gland, hematopoietic system, mammary gland
  Potency: 3.33 mg/kg/day

## C=CCc1ccc(OC)c(OC)c1
TD50_Rat_Note: TD50 is harmonic mean of more than one positive test, TargetSites_Rat_Female: liver, stomach
  Potency: 19.7 mg/kg/day

## CC(O)CN(CC(C)O)CC(C)O (stereo not given)
[2]
  outcome: inactive; no positive results

## CCc1cc(C(N)=S)ccn1
[1]
  outcome: inactive; no positive results

## CN(C)C(=O)COC(=O)Cc1ccc(OC(=O)c2ccc(N=C(N)N)cc2)cc1
[2]
  outcome: inactive; no positive results

## CC1(C)O[C@@H]2C[C@H]3[C@@H]4CCC5=CC(=O)C=C[C@]5(C)[C@@]4(F)[C@@H](O)C[C@]3(C)[C@]2(C(=O)CO)O1
  Potency: 0.053 mg/kg/day

## OCCOCCO
[3]
  Potency: 1660 mg/kg/day
